# Data from US20260137703A1, “2-AMINO-PYRIDO[2,3-D]PYRIMIDIN-7(8H)-ONE AND 7-AMINO-1-PYRIMIDO[4,5-D]PYRIMIDIN-2(1 H)-ONE DERIVATIVES AS EGFR INHIBITORS FOR THE TREATMENT OF CANCER” (Cancer Research Technology Limited, priority 2022, published 2026).
# Counter-ions that a name gives are not always drawn.
# What was measured:
# [1] = biological target: CtermHisTag-mEGFR Wild type (Homo sapiens, UniProt P00533); assay: biochemical
# [2] = biological target: T1, Phospho-EGFR (Tyr1068) in H1975 C797S cells (CRISPR-edited EGFR C797S) (Homo sapiens, UniProt P00533, C797S/L858R/T790M); assay: HTRF pEGFR/total EGFR in H1975 C797S cells; format: cell-based; conditions: ratio pEGFR/total EGFR, compound 3 hours
# T1 construct: host or cells: H1975 C797S (CRISPR-edited)
# Method in brief: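 Readout is the HTRF-measured Tyr1068 phospho-EGFR to total EGFR ratio, normalised to the 0 μM control as percent. Preceding this, CRISPR-edited H1975 C797S cells, plated 24 h earlier, were exposed 3 h to duplicate compound doses in medium with 0.1% DMSO, then lysed on a shaker.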
# [3] = biological target: T2, Phospho-EGFR (Tyr1068) in H1975 cells (Homo sapiens, UniProt P00533, L858R/T790M); assay: HTRF pEGFR/total EGFR in H1975 cells; format: cell-based; conditions: ratio pEGFR/total EGFR, compound 3 hours
# T2 construct: host or cells: H1975
# Method in brief: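 Readout is the phospho-EGFR (Tyr1068) to total EGFR HTRF ratio, expressed relative to 0 μM control. Adhered H1975 cells were exposed to compound for 3 hours at 0.1% DMSO, duplicate wells, then lysed for 30 min at room temperature before two-wavelength fluorescence reading.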
# [4] = biological target: T3, Phospho-EGFR (Tyr1068) in A431 cells (Homo sapiens, UniProt P00533); assay: HTRF pEGFR/total EGFR in A431 cells with EGF stimulation; format: cell-based; conditions: ratio pEGFR/total EGFR, compound 2.5 hours then 100 ng/ml EGF 30 mins
# T3 construct: endogenous in cells; host or cells: A431
# Method in brief: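 Values are pEGFR(Tyr1068)/total EGFR HTRF ratios (665/620 nm) given as percent of the 0 μM control. Adhered A431 cells (20,000 per well, 24 h) had 2.5 h compound pretreatment in 0.1% DMSO, then 30 min of 100 ng/ml EGF before lysis.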
# T1 sequence (P00533 25-1210 T790M/C797S/L858R): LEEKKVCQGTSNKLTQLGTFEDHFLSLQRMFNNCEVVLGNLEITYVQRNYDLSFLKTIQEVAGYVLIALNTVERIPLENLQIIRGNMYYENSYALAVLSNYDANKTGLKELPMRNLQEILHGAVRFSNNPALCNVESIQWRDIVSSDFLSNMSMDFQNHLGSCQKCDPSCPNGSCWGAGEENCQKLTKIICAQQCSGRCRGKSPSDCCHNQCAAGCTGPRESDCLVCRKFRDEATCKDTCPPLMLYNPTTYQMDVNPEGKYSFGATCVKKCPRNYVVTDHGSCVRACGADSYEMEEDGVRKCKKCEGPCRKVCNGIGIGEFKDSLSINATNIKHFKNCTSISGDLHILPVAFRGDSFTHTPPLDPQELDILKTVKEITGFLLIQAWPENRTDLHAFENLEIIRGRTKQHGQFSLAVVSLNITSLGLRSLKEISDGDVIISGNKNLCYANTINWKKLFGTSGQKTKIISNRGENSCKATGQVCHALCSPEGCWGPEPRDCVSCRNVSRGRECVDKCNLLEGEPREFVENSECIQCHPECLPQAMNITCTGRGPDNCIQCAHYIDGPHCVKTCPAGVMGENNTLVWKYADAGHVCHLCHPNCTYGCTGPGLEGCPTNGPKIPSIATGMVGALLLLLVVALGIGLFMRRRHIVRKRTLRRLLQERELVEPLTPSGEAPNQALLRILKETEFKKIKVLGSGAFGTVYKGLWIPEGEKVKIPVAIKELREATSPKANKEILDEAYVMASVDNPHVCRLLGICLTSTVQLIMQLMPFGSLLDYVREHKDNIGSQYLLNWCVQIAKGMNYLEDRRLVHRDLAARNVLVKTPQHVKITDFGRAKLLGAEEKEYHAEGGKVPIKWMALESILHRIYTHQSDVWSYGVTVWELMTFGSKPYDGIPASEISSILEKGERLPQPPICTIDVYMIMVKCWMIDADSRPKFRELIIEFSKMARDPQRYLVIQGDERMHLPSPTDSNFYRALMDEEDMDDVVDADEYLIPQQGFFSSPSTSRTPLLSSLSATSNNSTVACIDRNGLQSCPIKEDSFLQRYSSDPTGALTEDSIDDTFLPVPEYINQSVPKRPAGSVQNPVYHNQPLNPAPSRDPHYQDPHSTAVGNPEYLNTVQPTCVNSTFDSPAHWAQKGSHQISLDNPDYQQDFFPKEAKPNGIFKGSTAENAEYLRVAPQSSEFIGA
# CtermHisTag-mEGFR Wild type, sequence (P00533 whole entry): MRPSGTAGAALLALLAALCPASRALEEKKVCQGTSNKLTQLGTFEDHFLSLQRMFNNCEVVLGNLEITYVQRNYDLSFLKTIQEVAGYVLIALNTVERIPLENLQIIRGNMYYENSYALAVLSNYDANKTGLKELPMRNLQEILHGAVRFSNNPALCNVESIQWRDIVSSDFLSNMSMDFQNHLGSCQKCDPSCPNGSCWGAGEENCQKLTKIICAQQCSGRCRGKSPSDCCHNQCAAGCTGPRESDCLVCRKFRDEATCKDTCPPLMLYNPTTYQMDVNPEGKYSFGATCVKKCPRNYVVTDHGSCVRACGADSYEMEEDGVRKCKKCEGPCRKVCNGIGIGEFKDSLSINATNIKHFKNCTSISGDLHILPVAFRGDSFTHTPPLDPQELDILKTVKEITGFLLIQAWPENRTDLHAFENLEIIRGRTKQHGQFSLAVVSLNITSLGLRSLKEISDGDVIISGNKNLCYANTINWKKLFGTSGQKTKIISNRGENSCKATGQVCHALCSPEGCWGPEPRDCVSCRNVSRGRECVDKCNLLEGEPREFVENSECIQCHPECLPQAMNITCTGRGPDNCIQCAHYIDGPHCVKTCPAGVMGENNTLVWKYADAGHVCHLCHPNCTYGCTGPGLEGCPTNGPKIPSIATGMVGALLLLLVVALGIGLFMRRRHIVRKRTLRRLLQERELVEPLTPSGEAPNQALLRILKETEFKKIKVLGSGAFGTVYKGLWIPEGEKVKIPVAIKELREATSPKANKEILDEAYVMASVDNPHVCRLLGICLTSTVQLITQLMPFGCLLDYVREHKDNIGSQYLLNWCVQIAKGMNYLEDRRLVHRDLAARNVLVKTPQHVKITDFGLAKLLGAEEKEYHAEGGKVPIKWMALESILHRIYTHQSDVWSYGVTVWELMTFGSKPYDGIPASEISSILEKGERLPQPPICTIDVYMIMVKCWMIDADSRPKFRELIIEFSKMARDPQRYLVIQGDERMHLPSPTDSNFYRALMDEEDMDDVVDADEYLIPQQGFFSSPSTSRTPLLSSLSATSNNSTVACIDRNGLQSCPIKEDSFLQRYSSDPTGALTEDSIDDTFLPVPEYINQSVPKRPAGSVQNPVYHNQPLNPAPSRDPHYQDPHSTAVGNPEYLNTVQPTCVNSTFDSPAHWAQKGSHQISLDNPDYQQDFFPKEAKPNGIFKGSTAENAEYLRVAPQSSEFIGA
# T3 sequence (P00533 25-1210): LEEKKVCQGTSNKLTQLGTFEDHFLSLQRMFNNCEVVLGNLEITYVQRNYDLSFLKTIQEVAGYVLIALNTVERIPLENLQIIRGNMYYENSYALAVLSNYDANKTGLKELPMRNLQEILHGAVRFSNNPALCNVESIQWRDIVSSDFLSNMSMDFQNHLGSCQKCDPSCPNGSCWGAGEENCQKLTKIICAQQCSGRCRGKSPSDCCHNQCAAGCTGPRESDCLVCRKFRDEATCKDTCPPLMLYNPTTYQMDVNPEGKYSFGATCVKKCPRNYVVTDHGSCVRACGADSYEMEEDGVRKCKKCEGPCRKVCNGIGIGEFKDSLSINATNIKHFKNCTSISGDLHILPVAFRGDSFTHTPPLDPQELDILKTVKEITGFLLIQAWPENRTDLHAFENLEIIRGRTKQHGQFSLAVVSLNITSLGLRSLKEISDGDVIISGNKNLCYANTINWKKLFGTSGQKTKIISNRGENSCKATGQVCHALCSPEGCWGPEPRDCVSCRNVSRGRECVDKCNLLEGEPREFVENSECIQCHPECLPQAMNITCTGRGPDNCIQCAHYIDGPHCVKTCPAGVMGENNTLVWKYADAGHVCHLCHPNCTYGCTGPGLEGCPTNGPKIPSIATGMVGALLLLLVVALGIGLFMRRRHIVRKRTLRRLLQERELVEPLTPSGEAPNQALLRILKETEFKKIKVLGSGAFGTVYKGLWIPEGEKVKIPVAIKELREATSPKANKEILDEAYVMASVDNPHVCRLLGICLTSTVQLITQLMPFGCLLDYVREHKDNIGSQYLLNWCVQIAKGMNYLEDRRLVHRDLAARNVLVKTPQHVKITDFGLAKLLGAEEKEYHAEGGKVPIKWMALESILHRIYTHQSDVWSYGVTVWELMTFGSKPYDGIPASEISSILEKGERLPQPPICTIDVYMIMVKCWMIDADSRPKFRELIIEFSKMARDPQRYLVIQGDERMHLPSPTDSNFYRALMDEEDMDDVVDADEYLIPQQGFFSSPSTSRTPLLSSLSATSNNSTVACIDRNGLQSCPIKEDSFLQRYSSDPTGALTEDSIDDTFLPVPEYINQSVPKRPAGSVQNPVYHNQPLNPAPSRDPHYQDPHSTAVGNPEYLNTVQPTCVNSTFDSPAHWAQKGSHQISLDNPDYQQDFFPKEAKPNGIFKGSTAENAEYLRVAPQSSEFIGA
# T2 sequence (P00533 25-1210 T790M/L858R): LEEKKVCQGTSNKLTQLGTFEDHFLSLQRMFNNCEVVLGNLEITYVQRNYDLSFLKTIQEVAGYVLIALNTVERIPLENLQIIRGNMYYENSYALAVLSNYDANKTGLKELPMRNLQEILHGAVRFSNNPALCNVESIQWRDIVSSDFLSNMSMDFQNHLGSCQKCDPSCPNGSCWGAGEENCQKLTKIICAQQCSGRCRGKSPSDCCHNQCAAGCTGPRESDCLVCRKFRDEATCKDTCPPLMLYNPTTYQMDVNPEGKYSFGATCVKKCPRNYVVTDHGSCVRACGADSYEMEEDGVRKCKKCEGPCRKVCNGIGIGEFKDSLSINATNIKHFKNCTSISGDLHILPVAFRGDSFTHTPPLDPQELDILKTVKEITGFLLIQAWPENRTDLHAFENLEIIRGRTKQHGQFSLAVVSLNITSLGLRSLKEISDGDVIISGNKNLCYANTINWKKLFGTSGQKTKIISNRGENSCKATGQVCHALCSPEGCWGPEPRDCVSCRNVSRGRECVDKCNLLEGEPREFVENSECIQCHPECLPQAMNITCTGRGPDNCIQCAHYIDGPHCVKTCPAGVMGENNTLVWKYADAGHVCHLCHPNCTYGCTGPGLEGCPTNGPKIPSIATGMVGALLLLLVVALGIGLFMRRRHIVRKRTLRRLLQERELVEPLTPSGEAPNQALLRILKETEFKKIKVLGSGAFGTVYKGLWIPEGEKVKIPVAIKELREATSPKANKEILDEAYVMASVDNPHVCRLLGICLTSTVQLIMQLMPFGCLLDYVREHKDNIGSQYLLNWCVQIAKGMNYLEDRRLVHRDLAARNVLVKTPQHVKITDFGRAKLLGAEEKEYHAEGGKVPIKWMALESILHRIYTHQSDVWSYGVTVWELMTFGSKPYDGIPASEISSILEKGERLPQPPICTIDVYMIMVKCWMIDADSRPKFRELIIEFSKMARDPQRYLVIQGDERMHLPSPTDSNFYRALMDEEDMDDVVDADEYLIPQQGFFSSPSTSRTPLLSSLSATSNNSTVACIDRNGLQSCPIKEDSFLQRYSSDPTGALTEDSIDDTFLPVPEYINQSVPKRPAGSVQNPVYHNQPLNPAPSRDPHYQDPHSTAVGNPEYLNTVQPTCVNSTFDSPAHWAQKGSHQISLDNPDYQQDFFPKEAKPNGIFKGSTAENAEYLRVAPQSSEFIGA
IC50 [1],IC50 [2],IC50 [3],IC50 [4],SMILES
< 1 µM,< 0.5 µM,< 0.5 µM,> 3 µM,"C#Cc1cc(=O)n([C@H]2CC[C@@H](NC(=O)CC)CC2)c2nc(Nc3ccc(N4CCN(C)CC4)cc3)ncc12 [Example 81, N-[(1s,4s)-4-(5-Ethynyl-2-{[4-(4-methylpiperazin-1-yl)phenyl]amino}-7-oxopyrido[2,3-d]pyrimidin-8-yl)cyclohexyl]propanamide]"
< 1 µM,< 0.5 µM,< 0.5 µM,> 3 µM,"C#Cc1cc(=O)n([C@H]2CC[C@@H](NC(=O)C(C)C)CC2)c2nc(Nc3ccc(N4CCN(C)CC4)cc3)ncc12 [Example 82, 2-Methyl-N-[(1s,4s)-4-(5-ethynyl-2-{[4-(4-methylpiperazin-1-yl)phenyl]amino}-7-oxopyrido[2,3-d]pyrimidin-8-yl)cyclohexyl]propanamide]"
< 1 µM,0.5 to 1 µM,< 0.5 µM,1 to 3 µM,"C#Cc1cc(=O)n(-c2ccc(OC)cc2OC)c2nc(Nc3ccc(N(C)CCN(C)C)cc3)ncc12 [Example 86, 8-(2,4-Dimethoxyphenyl)-2-[(4-{[2-(dimethylamino)ethyl](methyl)amino}phenyl)amino]-5-ethynylpyrido[2,3-d]pyrimidin-7-one]"
< 1 µM,< 0.5 µM,< 0.5 µM,> 3 µM,"C#Cc1cc(=O)n([C@H]2CC[C@H](NC(C)=O)CC2)c2nc(Nc3ccc(N4CCN(C)CC4)cc3)ncc12 [Example 87, N-[(1r,4r)-4-(5-Ethynyl-2-{[4-(4-methylpiperazin-1-yl)phenyl]amino}-7-oxopyrido[2,3-d]pyrimidin-8-yl)cyclohexyl]acetamide]"
1 to 10 µM,> 3 µM,> 3 µM,> 3 µM,"C#Cc1cc(=O)n(-c2ccc(NC(=O)C=C)cc2)c2nc(Nc3ccccc3OC)ncc12 [Example 88, N-(4-(5-Ethynyl-2-((2-methoxyphenyl)amino)-7-oxopyrido[2,3-d]pyrimidin-8(7H)-yl)phenyl)acrylamide]"
< 1 µM,< 0.5 µM,< 0.5 µM,> 3 µM,"C#Cc1cc(=O)n([C@H]2CC[C@H](NC(=O)c3ccnnc3)CC2)c2nc(Nc3ccc(N4CCN(C)CC4)cc3)ncc12 [Example 89, N-[(1r,4r)-4-(5-Ethynyl-2-{[4-(4-methylpiperazin-1-yl)phenyl]amino}-7-oxopyrido[2,3-d]pyrimidin-8-yl)cyclohexyl]pyridazine-4-carboxamide]"

# The remaining lines, values behind:
SMILES,IC50 [1],IC50 [2],IC50 [3],IC50 [4]
"C#Cc1cc(=O)n(CC2CCCC2)c2nc(Nc3ccc(N4CCN(C)CC4)cc3)ncc12 [Example 67, 8-(Cyclopentylmethyl)-5-ethynyl-2-((4-(4-methylpiperazin-1-yl)phenyl)amino)pyrido[2,3-d]pyrimidin-7(8H)-one]",< 1 µM,< 0.5 µM,< 0.5 µM,1 to 3 µM
"C#Cc1cc(=O)n(C2CCCCC2)c2nc(Nc3ccc(N4CCN(C)CC4)cc3)ncc12 [Example 68, 8-Cyclohexyl-5-ethynyl-2-((4-(4-methylpiperazin-1-yl)phenyl)amino)pyrido[2,3-d]pyrimidin-7(8H)-one]",< 1 µM,0.5 to 1 µM,< 0.5 µM,1 to 3 µM
"C#Cc1cc(=O)n(C2CCOCC2)c2nc(Nc3ccc(N4CCN(C)CC4)cc3)ncc12 [Example 69, 5-Ethynyl-2-((4-(4-methylpiperazin-1-yl)phenyl)amino)-8-(tetrahydro-2H-pyran-4-yl)pyrido[2,3-d]pyrimidin-7(8H)-one]",< 1 µM,1 to 3 µM,< 0.5 µM,> 3 µM
"C#Cc1cc(=O)n(CC2CCOC2)c2nc(Nc3ccc(N4CCN(C)CC4)cc3)ncc12 (stereo not drawn) [Example 70, 5-Ethynyl-2-((4-(4-methylpiperazin-1-yl)phenyl)amino)-8-((tetrahydrofuran-3-yl)methyl)pyrido[2,3-d]pyrimidin-7(8H)-one]",< 1 µM,< 0.5 µM,< 0.5 µM,> 3 µM
"C#Cc1cc(=O)n(C[C@@H]2CCC(=O)N2)c2nc(Nc3ccc(N4CCN(C)CC4)cc3)ncc12 [Example 71, (S)-5-Ethynyl-2-((4-(4-methylpiperazin-1-yl)phenyl)amino)-8-((5-oxopyrrolidin-2-yl)methyl)pyrido[2,3-d]pyrimidin-7(8H)-one]",> 10 µM,> 3 µM,> 3 µM,> 3 µM
"C#Cc1cc(=O)n(CC2CCCO2)c2nc(Nc3ccc(N4CCN(C)CC4)cc3)ncc12 (stereo not drawn) [Example 72, 5-Ethynyl-2-((4-(4-methylpiperazin-1-yl)phenyl)amino)-8-((tetrahydrofuran-2-yl)methyl)pyrido[2,3-d]pyrimidin-7(8H)-one]",< 1 µM,< 0.5 µM,0.5 to 1 µM,> 3 µM
"C#Cc1cc(=O)n(C2CCCC2O)c2nc(Nc3ccc(N4CCN(C)CC4)cc3)ncc12 (stereo not drawn) [Example 73, 5-Ethynyl-8-(2-hydroxycyclopentyl)-2-((4-(4-methylpiperazin-1-yl)phenyl)amino)pyrido[2,3-d]pyrimidin-7(8H)-one]",1 to 10 µM,1 to 3 µM,0.5 to 1 µM,> 3 µM
"C#Cc1cc(=O)n(C(C)C)c2nc(Nc3ccc(N4CCN(C)CC4)cc3)ncc12 [Example 76, 5-Ethynyl-8-isopropyl-2-{[4-(4-methylpiperazin-1-yl)phenyl]amino}pyrido[2,3-d]pyrimidin-7-one]",< 1 µM,0.5 to 1 µM,< 0.5 µM,> 3 µM
"C#Cc1cc(=O)n([C@@H]2CCCN(C(=O)CC)C2)c2nc(Nc3ccc(N(C)CCN(C)C)cc3)ncc12 [Example 77, (R)-2-((4-((2-(Dimethylamino)ethyl)(methyl)amino)phenyl)amino)-5-ethynyl-8-(1-propionylpiperidin-3-yl)pyrido[2,3-d]pyrimidin-7(8H)-one trifluoroacetic acid salt]",> 10 µM,> 3 µM,> 3 µM,> 3 µM
"C#Cc1cc(=O)n(C2CCCC2)c2nc(Nc3ccc(N4CCN(C)CC4)cc3)ncc12 [Example 78, 8-cyclopentyl-5-ethynyl-2-((4-(4-methylpiperazin-1-yl)phenyl)amino)pyrido[2,3-d]pyrimidin-7(8H)-one]",< 1 µM,< 0.5 µM,< 0.5 µM,> 3 µM
"C#Cc1cc(=O)n([C@H]2CC[C@@H](NC(C)=O)CC2)c2nc(Nc3ccc(N(C)CCN(C)C)cc3)ncc12 [Example 79, N-[(1s,4s)-4-{2-[(4-{[2-(Dimethylamino)ethyl](methyl)amino}phenyl)amino]-5-ethynyl-7-oxopyrido[2,3-d]pyrimidin-8-yl}cyclohexyl]acetamide]",< 1 µM,< 0.5 µM,< 0.5 µM,1 to 3 µM
"C#Cc1cc(=O)n([C@H]2CC[C@@H](CO)CC2)c2nc(Nc3ccc(N(C)CCN(C)C)cc3)ncc12 [Example 80, 2-[(4-{[2-(Dimethylamino)ethyl](methyl)amino}phenyl)amino]-5-ethynyl-8-[(1s,4s)-4-(hydroxymethyl)cyclohexyl]pyrido[2,3-d]pyrimidin-7-one]",< 1 µM,0.5 to 1 µM,< 0.5 µM,1 to 3 µM
